Source: patent US20160222056A1, “SUBSTITUTED PHENYLALANINE DERIVATIVES” (BAYER PHARMA AKTIENGESELLSCHAFT, priority 2013, published 2016)
Counter-ions that a name gives are not always drawn.

Key:
human and animal plasma = assay: Anticoagulatory activity: activated partial thromboplastin time (aPTT) in plasma; format: biochemical; details: in vitro in plasma, C.K. Prest kit, 37° C. for 3 minutes; plasma species of Table B not stated
Description: The anticoagulatory activity of the test substances is determined in vitro in human and animal plasma (for example mouse, rat, rabbit, pig and dog plasma). To this end, blood is drawn off in a mixing ratio of sodium citrate/blood of 1:9 using a 0.11 molar sodium citrate solution as receiver. Immediately after the blood has been drawn off, it is mixed thoroughly and centrifuged at about 4000 g for 15 minutes. The supernatant is pipetted off.
The activated partial thromboplastin time (aPTT) is determined in the presence of varying concentrations of test substance or the corresponding solvent using a commercial test kit (C.K. Prest from Diagnostica Stago). The test compounds are incubated with the plasma and the PTT reagent (cephalin, kaolin) at 37° C. for 3 minutes. Coagulation is then started by addition of 25 mM aqueous calcium chloride, and the time when coagulation occurs is determined. The concentration of test substance which brings about a 1.5-fold extension of the aPTT is determined.

human factor XIa = target: T1, human factor XIa (Homo sapiens, UniProt P03951); assay: Measurement of FXIa inhibition (fluorogenic peptide substrate); format: biochemical; details: human factor XIa from Kordia, substrate Boc-Glu(OBzl)-Ala-Arg-AMC, 30 min at 22° C.; read-out: IC50 (FXIa inhibition)
T1 construct: purchased Kordia
Description: To determine the factor XIa inhibition of the substances according to the invention, a biochemical test system is used which utilizes the reaction of a peptidic factor XIa substrate to determine the enzymatic activity of human factor XIa. Here, factor XIa cleaves from the peptic factor XIa substrate the C-terminal aminomethylcoumarin (AMC), the fluorescence of which is measured. The determinations are carried out in microtitre plates.
Test substances are dissolved in dimethyl sulphoxide and serially diluted in dimethyl sulphoxide (3000 μM to 0.0078 μM; resulting final concentrations in the test: 50 μM to 0.00013 μM). In each case 1 μl of the diluted substance solutions are placed into the wells of white microtitre plates from Greiner (384 wells). Subsequently, the following are added successively: 20 μl of assay buffer (50 mmol/1 Tris buffer pH 7.4; 100 mmol/1 sodium chloride; 5 mmol/1 calcium chloride; 0.1% bovine serum albumin) and 20 μl of factor XIa from Kordia (0.45 nM in assay buffer). After 15 min of incubation, the enzyme reaction is started by addition of 20 μl of the factor XIa substrate Boc-Glu(OBzl)-Ala-Arg-AMC dissolved in assay buffer (10 μM in assay buffer) from Bachem, the mixture is incubated at room temperature (22° C.) for 30 min and fluorescence is then measured (excitation: 360 nm, emission: 460 nm). The measured emissions of the test batches with test substance are compared to those of control batches without test substance (only dimethyl sulphoxide instead of test substance in dimethyl sulphoxide), and the IC50 values are calculated from the concentration/activity relationships.

T1 sequence (P03951 388-625 limits assumed): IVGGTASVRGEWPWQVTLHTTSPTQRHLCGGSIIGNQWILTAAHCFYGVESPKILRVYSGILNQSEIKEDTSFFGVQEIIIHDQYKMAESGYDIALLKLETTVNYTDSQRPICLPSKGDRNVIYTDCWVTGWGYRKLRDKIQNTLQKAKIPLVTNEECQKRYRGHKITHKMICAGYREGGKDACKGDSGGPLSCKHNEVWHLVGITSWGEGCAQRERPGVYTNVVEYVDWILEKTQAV
T1 sequence (P03951 19-387 partner limits assumed): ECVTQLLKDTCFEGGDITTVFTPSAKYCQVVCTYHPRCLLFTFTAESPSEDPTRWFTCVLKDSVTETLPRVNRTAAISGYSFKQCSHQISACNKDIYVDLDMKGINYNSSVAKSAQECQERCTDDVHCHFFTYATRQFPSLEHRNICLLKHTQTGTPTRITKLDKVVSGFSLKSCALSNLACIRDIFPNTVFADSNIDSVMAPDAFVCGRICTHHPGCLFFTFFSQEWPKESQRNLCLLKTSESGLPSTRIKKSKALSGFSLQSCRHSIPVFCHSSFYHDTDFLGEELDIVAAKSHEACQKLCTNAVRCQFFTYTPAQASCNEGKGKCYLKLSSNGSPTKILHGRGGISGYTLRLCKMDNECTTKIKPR

Row | Structure (SMILES) | IC50 (human factor XIa) | aPTT (concentration of test substance which brings about a 1.5-fold extension of the aPTT) (human and animal plasma)
1 | CCN(CC)CCNC(=O)c1ccc(-c2ccc(C[C@H](NC(=O)[C@H]3CC[C@H](CN)CC3)C(=O)Nc3ccc(-c4nn[nH]n4)cc3)cc2)c(C(F)(F)F)n1 [Example 1, N-alpha-{[trans-4-(Aminomethyl)cyclohexyl]carbonyl}-4-[6-{[2-(diethylamino)ethyl]carbamoyl}-2-(trifluoromethyl)pyridin-3-yl]-N-[4-(2H-tetrazol-5-yl)phenyl]-L-phenylalaninamide hydrochloride] | 2 nM | 0.1 µmol/L
2 | Cc1cc(C(=O)NC2CCNCC2)ncc1-c1ccc(C[C@H](NC(=O)[C@H]2CC[C@H](CN)CC2)C(=O)Nc2ccc(-c3nnn[nH]3)cc2)cc1 [Example 5, N-alpha-{[trans-4-(Aminomethyl)cyclohexyl]carbonyl}-4-[4-methyl-6-(piperidin-4-ylcarbamoyl)pyridin-3-yl]-N-[4-(1H-tetrazol-5-yl)phenyl]-L-phenylalaninamide hydrochloride] | 1.9 nM | 0.04 µmol/L
3 | Cc1cc(C(=O)N2CC(C)NC(C)C2)ncc1-c1ccc(C[C@H](NC(=O)C2CCC(CN)CC2)C(=O)Nc2ccc(-c3nnn[nH]3)cc2)cc1 (stereo partly drawn) [Example 6, N-alpha-{[trans-4-(Aminomethyl)cyclohexyl]carbonyl}-4-{6-[(3,5-dimethylpiperazin-1-yl)carbonyl]-4-methylpyridin-3-yl}-N-[4-(1H-tetrazol-5-yl)phenyl]-L-phenylalaninamide hydrochloride] | 4.1 nM | 0.04 µmol/L
4 | CCN(CC)C1CCC(NC(=O)c2cc(C)c(-c3ccc(C[C@H](NC(=O)[C@H]4CC[C@H](CN)CC4)C(=O)Nc4ccc(-c5nnn[nH]5)cc4)cc3)cn2)CC1 (stereo partly drawn) [Example 7, N-alpha-{[trans-4-(Aminomethyl)cyclohexyl]carbonyl}-4-(6-{[4-(diethylamino)cyclohexyl]-carbamoyl}-4-methylpyridin-3-yl)-N-[4-(1H-tetrazol-5-yl)phenyl]-L-phenylalaninamide hydrochloride] | 2.6 nM | 0.04 µmol/L
5 | Cc1cc(C(=O)NC2CC3CCC(C2)N3)ncc1-c1ccc(CC(NC(=O)C2CCC(CN)CC2)C(=O)Nc2ccc(-c3nnn[nH]3)cc2)cc1 [Example 10, N-alpha-{[trans-4-(Aminomethyl)cyclohexyl]carbonyl}-4-{6-[(1R,5S)-8-azabicyclo[3.2.1]oct-3-ylcarbamoyl]-4-methylpyridin-3-yl}-N-[4-(1H-tetrazol-5-yl)phenyl]-L-phenylalaninamide hydrochloride] | 3 nM | 0.07 µmol/L
6 | Cc1cc(C(=O)NC2CC3COCC(C2)N3)ncc1-c1ccc(C[C@H](NC(=O)C2CCC(CN)CC2)C(=O)Nc2ccc(-c3nnn[nH]3)cc2)cc1 (stereo partly drawn) [Example 11, N-alpha-{[trans-4-(Aminomethyl)cyclohexyl]carbonyl}-4-[4-methyl-6-(3-oxa-9-azabicyclo[3.3.1]non-7-ylcarbamoyl)pyridin-3-yl]-N-[4-(1H-tetrazol-5-yl)phenyl]-L-phenylalaninamide hydrochloride] | 5.2 nM | 0.07 µmol/L
7 | Cc1nc(C(=O)NC2CCN(C)CC2)ccc1-c1ccc(C[C@H](NC(=O)[C@H]2CC[C@H](CN)CC2)C(=O)Nc2ccc(-c3nnn[nH]3)cc2)cc1 [Example 30, N-alpha-{[trans-4-(Aminomethyl)cyclohexyl]carbonyl}-4{-2-methyl-6-[(1-methylpiperidin-4-yl)carbamoyl]pyridin-3-yl}-N-[4-(1H-tetrazol-5-yl)phenyl]-L-phenylalaninamide hydrochloride] | 5.5 nM | 
8 | Cc1nc(C(=O)N[C@H]2CC[C@H](N)CC2)ccc1-c1ccc(C[C@H](NC(=O)[C@H]2CC[C@H](CN)CC2)C(=O)Nc2ccc(-c3nn[nH]n3)cc2)cc1 [Example 31, 4-{6-[(trans-4-Aminocyclohexyl)carbamoyl]-2-methylpyridin-3-yl}-N-alpha-{[trans-4-(aminomethyl)cyclohexyl]carbonyl}-N-[4-(2H-tetrazol-5-yl)phenyl]-L-phenylalaninamide hydrochloride] | 1.9 nM | 
9 | Cc1cc(C(=O)N2CCNC(=O)C2)ncc1-c1ccc(C[C@H](NC(=O)[C@H]2CC[C@H](CN)CC2)C(=O)Nc2ccc(-c3nnn[nH]3)cc2)cc1 [Example 32, N-alpha-{[trans-4-(Aminomethyl)cyclohexyl]carbonyl}-4-{4-methyl-6-[(3-oxopiperazin-1-yl)carbonyl]pyridin-3-yl}-N-[4-(1H-tetrazol-5-yl)phenyl]-L-phenylalaninamide hydrochloride] | 1.8 nM | 

More lines, main results first:

Row | IC50 (human factor XIa) | Structure (SMILES) | aPTT (concentration of test substance which brings about a 1.5-fold extension of the aPTT) (human and animal plasma)
10 | 1.9 nM | Cc1nc(C(=O)NC2CCC(N(C)C)CC2)ccc1-c1ccc(C[C@H](NC(=O)[C@H]2CC[C@H](CN)CC2)C(=O)Nc2ccc(-c3nn[nH]n3)cc2)cc1 (stereo partly drawn) [Example 2, N-alpha-{[trans-4-(Aminomethyl)cyclohexyl]carbonyl}-4-(6-{[4-(dimethylamino)cyclohexyl]-carbamoyl}-2-methylpyridin-3-yl)-N-[4-(2H-tetrazol-5-yl)phenyl]-L-phenylalaninamide hydrochloride] | 0.08 µmol/L
11 | 5.6 nM | CCN(CC)CCNC(=O)c1ccc(-c2ccc(C[C@H](NC(=O)[C@H]3CC[C@H](CN)CC3)C(=O)Nc3ccc(-c4nn[nH]n4)cc3)cc2)c(C)n1 [Example 3, N-alpha-{[trans-4-(Aminomethyl)cyclohexyl]carbonyl}-4-(6-{[2-(diethylamino)ethyl]carbamoyl}-2-methylpyridin-3-yl)-N-[4-(2H-tetrazol-5-yl)phenyl]-L-phenylalaninamide hydrochloride] | 0.16 µmol/L
12 | 1.3 nM | Cc1nc(C(=O)N[C@H]2CCCNC2=O)ccc1-c1ccc(C[C@H](NC(=O)[C@H]2CC[C@H](CN)CC2)C(=O)Nc2ccc(-c3nn[nH]n3)cc2)cc1 [Example 4, N-alpha-{[trans-4-(Aminomethyl)cyclohexyl]carbonyl}-4-(2-methyl-6-{[(3S)-2-oxopiperidin-3-yl]carbamoyl}pyridin-3-yl)-N-[4-(2H-tetrazol-5-yl)phenyl]-L-phenylalaninamide hydrochloride] | 0.2 µmol/L
13 | 2.2 nM | Cc1cc(C(=O)NC2CCNCC2F)ncc1-c1ccc(C[C@H](NC(=O)C2CCC(CN)CC2)C(=O)Nc2ccc(-c3nnn[nH]3)cc2)cc1 (stereo partly drawn) [Example 8, N-alpha-{[trans-4-(Aminomethyl)cyclohexyl]carbonyl}-4-{6-[(3-fluoropiperidin-4-yl)carbamoyl]-4-methylpyridin-3-yl}-N-[4-(1H-tetrazol-5-yl)phenyl]-L-phenylalaninamide hydrochloride] | 0.05 µmol/L
14 | 5.2 nM | CCN(CC)CCCNC(=O)c1cc(C)c(-c2ccc(C[C@H](NC(=O)[C@H]3CC[C@H](CN)CC3)C(=O)Nc3ccc(-c4nnn[nH]4)cc3)cc2)cn1 [Example 9, N-alpha-{[trans-4-(Aminomethyl)cyclohexyl]carbonyl}-4-(6-{[3-(diethylamino)propyl]-carbamoyl}-4-methylpyridin-3-yl)-N-[4-(1H-tetrazol-5-yl)phenyl]-L-phenylalaninamide hydrochloride] | 0.05 µmol/L
15 | 4.8 nM | Cc1cc(C(=O)NCCCN(C)C)ncc1-c1ccc(C[C@H](NC(=O)[C@H]2CC[C@H](CN)CC2)C(=O)Nc2ccc(-c3nnn[nH]3)cc2)cc1 [Example 12, N-alpha-{[trans-4-(Aminomethyl)cyclohexyl]carbonyl}-4-(6-{[3-(dimethylamino)propyl]-carbamoyl}-4-methylpyridin-3-yl)-N-[4-(1H-tetrazol-5-yl)phenyl]-L-phenylalaninamide hydrochloride] | 0.08 µmol/L
